Test results taken from ChEMBL document CHEMBL1914402, “Design, synthesis, and biological evaluation of 3,4-dihydroquinolin-2(1H)-one and 1,2,3,4-tetrahydroquinoline-based selective human neuronal nitric oxide synthase (nNOS) inhibitors” (J Med Chem, 2011).
One block for each compound: values may come before it.

Key:
Nitric oxide synthase 1 = Nitric oxide synthase 1 (Homo sapiens, UniProt P29475); assay: Inhibition of human recombinant nNOS expressed in baculovirus infected Sf9 cells assessed as conversion of [3H]L-arginine to [3H]L-citrulline preincubated for 15 mins measured after 45 mins by liquid scintillation counting; type: cell-based
Sequence of Nitric oxide synthase 1 (P29475 whole entry): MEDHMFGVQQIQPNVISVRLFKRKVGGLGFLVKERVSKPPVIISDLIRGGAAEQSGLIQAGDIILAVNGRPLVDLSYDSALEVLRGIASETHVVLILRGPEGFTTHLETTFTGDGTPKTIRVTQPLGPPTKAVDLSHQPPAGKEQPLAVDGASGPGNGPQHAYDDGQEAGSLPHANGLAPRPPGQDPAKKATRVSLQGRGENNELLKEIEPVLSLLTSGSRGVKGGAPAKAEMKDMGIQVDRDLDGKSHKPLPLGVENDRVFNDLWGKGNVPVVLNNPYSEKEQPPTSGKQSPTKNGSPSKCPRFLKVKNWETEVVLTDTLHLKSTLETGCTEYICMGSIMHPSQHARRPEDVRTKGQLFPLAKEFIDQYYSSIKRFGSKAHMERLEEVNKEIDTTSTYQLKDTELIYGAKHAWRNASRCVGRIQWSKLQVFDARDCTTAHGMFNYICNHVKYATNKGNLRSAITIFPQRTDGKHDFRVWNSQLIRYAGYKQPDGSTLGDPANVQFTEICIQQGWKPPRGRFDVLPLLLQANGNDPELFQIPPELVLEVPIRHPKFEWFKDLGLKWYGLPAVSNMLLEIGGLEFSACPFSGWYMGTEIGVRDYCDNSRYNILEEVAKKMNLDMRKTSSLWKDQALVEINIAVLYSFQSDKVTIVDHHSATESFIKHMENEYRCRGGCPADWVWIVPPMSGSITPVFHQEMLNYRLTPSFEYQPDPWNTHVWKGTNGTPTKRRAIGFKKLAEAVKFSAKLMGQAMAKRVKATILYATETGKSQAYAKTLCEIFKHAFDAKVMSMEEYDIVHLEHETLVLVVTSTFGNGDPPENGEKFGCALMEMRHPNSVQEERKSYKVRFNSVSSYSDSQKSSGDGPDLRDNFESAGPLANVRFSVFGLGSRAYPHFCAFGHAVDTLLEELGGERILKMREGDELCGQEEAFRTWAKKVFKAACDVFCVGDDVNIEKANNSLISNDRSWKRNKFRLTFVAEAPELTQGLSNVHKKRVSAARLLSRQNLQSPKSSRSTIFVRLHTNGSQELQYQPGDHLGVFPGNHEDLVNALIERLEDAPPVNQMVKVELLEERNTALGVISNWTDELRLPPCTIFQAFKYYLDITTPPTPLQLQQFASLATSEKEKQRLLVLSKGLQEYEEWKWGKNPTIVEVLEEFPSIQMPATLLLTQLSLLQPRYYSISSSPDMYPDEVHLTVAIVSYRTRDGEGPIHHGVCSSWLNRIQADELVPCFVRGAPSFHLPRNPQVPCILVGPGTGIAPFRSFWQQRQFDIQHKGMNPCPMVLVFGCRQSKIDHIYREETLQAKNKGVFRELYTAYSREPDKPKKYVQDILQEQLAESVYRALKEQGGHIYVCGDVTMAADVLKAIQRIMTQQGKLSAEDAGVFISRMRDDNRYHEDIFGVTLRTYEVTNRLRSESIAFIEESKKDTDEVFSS

[1] = target: Nitric oxide synthase, inducible (Homo sapiens, UniProt P35228); assay: Inhibition of human recombinant iNOS expressed in baculovirus infected Sf9 cells assessed as conversion of [3H]L-arginine to [3H]L-citrulline preincubated for 15 mins measured after 45 mins by liquid scintillation counting; type: cell-based
Sequence of Nitric oxide synthase, inducible (P35228 whole entry): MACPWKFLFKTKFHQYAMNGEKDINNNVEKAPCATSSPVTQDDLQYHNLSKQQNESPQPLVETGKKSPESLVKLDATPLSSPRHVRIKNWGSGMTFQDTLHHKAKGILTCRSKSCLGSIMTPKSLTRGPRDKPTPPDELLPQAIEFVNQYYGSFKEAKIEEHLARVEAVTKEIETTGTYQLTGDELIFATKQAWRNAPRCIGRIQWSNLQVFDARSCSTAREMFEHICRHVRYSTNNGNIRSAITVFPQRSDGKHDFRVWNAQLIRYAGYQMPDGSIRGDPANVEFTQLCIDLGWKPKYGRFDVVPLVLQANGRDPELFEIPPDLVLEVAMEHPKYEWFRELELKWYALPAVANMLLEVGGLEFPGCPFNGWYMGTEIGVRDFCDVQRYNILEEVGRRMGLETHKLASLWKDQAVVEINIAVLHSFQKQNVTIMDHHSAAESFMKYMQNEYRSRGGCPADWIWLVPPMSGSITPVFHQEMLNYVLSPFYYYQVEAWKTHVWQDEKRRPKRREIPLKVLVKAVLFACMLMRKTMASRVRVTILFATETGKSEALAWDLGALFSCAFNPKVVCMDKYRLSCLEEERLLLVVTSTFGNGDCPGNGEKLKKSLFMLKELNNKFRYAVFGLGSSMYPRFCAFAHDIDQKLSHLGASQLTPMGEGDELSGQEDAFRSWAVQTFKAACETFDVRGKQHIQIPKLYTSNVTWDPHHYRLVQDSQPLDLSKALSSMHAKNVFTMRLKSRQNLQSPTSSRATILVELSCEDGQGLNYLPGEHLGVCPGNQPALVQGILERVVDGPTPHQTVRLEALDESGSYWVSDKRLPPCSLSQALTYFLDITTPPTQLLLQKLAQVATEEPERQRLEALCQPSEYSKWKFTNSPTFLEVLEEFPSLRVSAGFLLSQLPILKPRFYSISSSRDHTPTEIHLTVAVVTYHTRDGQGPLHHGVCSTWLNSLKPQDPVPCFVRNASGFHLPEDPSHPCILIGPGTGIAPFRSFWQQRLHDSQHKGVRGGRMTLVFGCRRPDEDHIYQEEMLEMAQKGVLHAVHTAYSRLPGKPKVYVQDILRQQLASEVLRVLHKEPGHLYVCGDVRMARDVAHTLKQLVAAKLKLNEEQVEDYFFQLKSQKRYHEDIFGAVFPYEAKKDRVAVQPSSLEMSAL

Cytochrome P450 1A2 = target: T1, Cytochrome P450 1A2 (Homo sapiens, UniProt P05177); assay: Inhibition of human CYP1A2; type: ADME
T1 sequence (P05177 whole entry): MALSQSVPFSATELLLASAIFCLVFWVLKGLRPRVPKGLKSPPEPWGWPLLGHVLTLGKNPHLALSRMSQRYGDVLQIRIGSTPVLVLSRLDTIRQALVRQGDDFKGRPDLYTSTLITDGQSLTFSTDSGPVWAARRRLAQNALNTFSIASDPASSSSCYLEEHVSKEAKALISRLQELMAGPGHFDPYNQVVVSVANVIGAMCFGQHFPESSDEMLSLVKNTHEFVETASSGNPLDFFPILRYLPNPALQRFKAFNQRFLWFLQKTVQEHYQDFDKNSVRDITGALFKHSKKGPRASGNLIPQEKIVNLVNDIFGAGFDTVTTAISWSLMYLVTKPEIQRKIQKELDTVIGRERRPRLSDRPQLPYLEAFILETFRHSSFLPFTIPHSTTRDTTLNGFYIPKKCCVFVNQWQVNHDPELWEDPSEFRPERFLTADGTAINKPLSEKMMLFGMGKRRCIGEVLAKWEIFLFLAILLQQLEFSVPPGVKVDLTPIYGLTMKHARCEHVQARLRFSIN

Cytochrome P450 2C9 = Cytochrome P450 2C9 (Homo sapiens, UniProt P11712); assay: Inhibition of human CYP2C9; type: ADME
Sequence of Cytochrome P450 2C9 (P11712 whole entry): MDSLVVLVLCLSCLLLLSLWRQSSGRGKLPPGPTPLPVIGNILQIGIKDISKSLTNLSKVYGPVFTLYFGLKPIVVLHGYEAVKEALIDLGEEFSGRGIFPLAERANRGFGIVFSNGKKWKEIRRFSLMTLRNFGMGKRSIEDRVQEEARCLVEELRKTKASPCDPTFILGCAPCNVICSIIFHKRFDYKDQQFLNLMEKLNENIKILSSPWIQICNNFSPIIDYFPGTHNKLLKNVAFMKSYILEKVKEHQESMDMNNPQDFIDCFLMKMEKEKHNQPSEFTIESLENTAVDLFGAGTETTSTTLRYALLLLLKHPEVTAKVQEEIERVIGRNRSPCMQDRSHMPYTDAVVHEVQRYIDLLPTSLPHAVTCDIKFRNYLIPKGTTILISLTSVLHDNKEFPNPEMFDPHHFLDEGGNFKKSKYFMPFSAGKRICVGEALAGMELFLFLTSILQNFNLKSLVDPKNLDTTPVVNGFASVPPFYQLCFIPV

Cytochrome P450 3A4 = Cytochrome P450 3A4 (Homo sapiens, UniProt P08684); assay: Inhibition of human CYP3A4; type: ADME
Sequence of Cytochrome P450 3A4 (P08684 whole entry): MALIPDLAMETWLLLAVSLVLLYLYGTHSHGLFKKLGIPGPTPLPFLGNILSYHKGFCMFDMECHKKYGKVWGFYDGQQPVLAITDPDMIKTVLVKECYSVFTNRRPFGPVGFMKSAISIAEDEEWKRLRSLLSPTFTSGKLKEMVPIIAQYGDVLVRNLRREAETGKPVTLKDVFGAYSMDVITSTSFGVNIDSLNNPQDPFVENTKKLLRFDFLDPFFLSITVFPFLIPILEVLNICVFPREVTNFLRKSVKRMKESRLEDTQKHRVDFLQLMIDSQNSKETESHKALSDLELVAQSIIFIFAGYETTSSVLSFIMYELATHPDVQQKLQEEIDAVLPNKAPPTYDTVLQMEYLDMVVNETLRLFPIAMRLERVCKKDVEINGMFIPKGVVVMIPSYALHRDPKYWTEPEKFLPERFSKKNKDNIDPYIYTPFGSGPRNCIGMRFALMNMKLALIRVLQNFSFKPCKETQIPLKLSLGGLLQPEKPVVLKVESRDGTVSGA

Cytochrome P450 2D6 = Cytochrome P450 2D6 (Homo sapiens, UniProt P10635); assay: Inhibition of human CYP2D6; type: ADME
Sequence of Cytochrome P450 2D6 (P10635 whole entry): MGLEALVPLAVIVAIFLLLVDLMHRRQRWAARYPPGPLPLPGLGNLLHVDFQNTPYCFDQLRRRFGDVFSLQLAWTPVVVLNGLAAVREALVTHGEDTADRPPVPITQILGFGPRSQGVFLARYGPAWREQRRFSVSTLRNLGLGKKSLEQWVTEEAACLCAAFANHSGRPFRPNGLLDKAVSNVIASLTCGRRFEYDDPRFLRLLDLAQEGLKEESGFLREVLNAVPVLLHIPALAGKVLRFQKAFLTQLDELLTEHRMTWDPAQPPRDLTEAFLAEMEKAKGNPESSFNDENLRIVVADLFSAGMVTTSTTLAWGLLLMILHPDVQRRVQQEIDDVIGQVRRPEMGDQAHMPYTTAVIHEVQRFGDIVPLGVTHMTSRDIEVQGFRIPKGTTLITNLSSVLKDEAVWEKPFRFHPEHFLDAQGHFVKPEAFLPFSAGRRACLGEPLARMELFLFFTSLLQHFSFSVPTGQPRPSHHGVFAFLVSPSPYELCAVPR

Cytochrome P450 2C19 = Cytochrome P450 2C19 (Homo sapiens, UniProt P33261); assay: Inhibition of human CYP2C19; type: ADME
Sequence of Cytochrome P450 2C19 (P33261 whole entry): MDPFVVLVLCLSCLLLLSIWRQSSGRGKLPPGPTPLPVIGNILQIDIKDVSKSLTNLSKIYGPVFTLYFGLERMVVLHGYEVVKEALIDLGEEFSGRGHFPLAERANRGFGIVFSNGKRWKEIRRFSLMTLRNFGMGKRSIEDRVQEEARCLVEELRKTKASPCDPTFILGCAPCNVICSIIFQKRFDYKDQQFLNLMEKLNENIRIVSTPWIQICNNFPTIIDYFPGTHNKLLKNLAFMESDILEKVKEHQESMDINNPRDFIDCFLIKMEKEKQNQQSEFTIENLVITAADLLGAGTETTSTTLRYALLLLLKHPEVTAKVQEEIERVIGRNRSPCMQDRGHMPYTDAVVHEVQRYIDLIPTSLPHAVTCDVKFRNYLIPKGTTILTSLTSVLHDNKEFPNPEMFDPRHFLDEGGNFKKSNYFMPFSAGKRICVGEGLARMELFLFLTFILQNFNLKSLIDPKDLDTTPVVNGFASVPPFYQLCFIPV

Nitric oxide synthase 3 = target: T2, Nitric oxide synthase 3 (Homo sapiens, UniProt P29474); assay: Inhibition of human recombinant eNOS expressed in baculovirus infected Sf9 cells assessed as conversion of [3H]L-arginine to [3H]L-citrulline preincubated for 15 mins measured after 45 mins by liquid scintillation counting; type: cell-based
T2 sequence (P29474 whole entry): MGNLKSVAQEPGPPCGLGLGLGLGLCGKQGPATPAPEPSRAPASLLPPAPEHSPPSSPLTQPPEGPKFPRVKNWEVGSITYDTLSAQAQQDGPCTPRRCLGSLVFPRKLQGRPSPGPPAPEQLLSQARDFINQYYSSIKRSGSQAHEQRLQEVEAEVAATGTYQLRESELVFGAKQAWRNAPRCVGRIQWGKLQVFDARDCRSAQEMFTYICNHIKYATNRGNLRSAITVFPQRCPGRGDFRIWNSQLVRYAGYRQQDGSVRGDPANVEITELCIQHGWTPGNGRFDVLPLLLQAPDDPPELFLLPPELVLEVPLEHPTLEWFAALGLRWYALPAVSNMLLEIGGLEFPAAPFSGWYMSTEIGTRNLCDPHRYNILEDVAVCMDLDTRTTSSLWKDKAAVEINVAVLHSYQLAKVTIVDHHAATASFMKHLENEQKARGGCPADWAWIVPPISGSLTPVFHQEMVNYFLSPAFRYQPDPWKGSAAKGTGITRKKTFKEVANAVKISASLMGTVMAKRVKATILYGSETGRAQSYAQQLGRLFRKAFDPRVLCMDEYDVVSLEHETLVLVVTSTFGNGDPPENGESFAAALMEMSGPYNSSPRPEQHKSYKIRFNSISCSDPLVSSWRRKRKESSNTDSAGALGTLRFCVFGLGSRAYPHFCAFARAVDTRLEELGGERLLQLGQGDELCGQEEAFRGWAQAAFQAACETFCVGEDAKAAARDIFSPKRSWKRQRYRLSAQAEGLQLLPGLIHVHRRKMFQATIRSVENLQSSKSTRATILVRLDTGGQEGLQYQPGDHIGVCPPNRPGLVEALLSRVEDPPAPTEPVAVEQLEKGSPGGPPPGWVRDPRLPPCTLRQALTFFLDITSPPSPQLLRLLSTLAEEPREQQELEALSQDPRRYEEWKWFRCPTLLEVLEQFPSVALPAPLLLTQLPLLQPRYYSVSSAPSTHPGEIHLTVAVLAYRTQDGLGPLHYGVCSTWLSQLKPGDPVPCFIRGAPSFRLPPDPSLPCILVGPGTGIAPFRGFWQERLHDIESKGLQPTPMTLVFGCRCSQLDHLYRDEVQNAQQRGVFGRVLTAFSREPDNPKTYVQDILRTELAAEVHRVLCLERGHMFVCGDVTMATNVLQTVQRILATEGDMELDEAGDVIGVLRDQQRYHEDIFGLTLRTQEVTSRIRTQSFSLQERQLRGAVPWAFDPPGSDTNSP

IC50 (Nitric oxide synthase 1): 0.16 µM
IC50 [1]: 11 µM
SMILES: N=C(Nc1ccc2c(c1)CCC(=O)N2CCN1CCCC1)c1cccs1

SMILES: N=C(Nc1ccc2c(c1)CCC(=O)N2CCCN1CCCC1)c1cccs1
IC50 (Nitric oxide synthase 1): 1.22 µM
IC50 [1]: > 100 µM

IC50 (Cytochrome P450 1A2): > 100 µM
IC50 (Cytochrome P450 2C9): > 100 µM
IC50 (Cytochrome P450 3A4): > 100 µM
IC50 (Cytochrome P450 2D6): > 100 µM
IC50 (Cytochrome P450 2C19): > 100 µM
SMILES: CN(C)CCN1CCCc2cc(NC(=N)c3cccs3)ccc21

IC50 (Nitric oxide synthase 1): 0.26 µM
IC50 [1]: > 100 µM
SMILES: CCN(CC)CCN1CCCc2cc(NC(=N)c3cccs3)ccc21

IC50 (Nitric oxide synthase 1): 0.086 µM
IC50 (Nitric oxide synthase 3): 9.5 µM
SMILES: N=C(Nc1ccc2c(c1)CCCN2CCCN1CCCC1)c1cccs1

IC50 [1]: 12 µM
SMILES: CCN(CC)CCN1C(=O)CCc2cc(NC(=N)c3cccs3)ccc21

IC50 [1]: > 100 µM
SMILES: N=C(Nc1ccc2c(c1)CCC(=O)N2CCN1CCCCC1)c1cccs1

IC50 (Nitric oxide synthase 1): 0.093 µM
SMILES: CN(C)CCN1CCCc2cc(NC(=N)c3cccs3)cc(F)c21

SMILES: CN(C)CCN1C(=O)CCc2cc(NC(=N)c3cccs3)ccc21
IC50 [1]: 35 µM
IC50 (Cytochrome P450 1A2): > 100 µM
IC50 (Cytochrome P450 2C9): > 100 µM
IC50 (Cytochrome P450 3A4): > 100 µM
IC50 (Cytochrome P450 2D6): 12.2 µM
IC50 (Cytochrome P450 2C19): > 100 µM

IC50 (Nitric oxide synthase 1): 3.36 µM
SMILES: CN(C)CCN1C(=O)CCc2cc(NC(=N)c3cccs3)cc(F)c21

IC50 (Nitric oxide synthase 1): 0.82 µM
IC50 (Nitric oxide synthase 3): 42.7 µM
SMILES: CN1CCC(N2CCCc3cc(NC(=N)c4cccs4)ccc32)CC1

SMILES: N=C(Nc1ccc2c(c1)CCCN2C1CCNCC1)c1cccs1
IC50 (Nitric oxide synthase 1): 0.54 µM
IC50 (Nitric oxide synthase 3): 119 µM
IC50 [1]: > 100 µM
IC50 (Cytochrome P450 1A2): > 100 µM
IC50 (Cytochrome P450 2C9): > 100 µM
IC50 (Cytochrome P450 3A4): > 100 µM
IC50 (Cytochrome P450 2D6): > 100 µM
IC50 (Cytochrome P450 2C19): 47.1 µM

IC50 (Nitric oxide synthase 1): 1.05 µM
IC50 [1]: > 100 µM
SMILES: CN1CCCC1CCN1C(=O)CCc2cc(NC(=N)c3cccs3)ccc21 (racemic)
